Reference: patent US20250213560A1, “NITROGEN-CONTAINING HETEROCYCLIC COMPOUNDS HAVING PHENYL GROUP AND USES THEREOF” (BNH RESEARCH CO., LTD., priority 2022, published 2025)

Test system: 293T cells
Assay: Cytotoxicity test (CCK-8 cell viability) in 293T cells
Format: cell-based, human
Conditions: 293T cell line
Protocol: Human undifferentiated neuroblastoma cell line SH-SY5Y and human embryonic kidney cell line (HEK)-293T were purchased from Korean Cell Line Bank (Korea) and Takara (Japan), respectively. Cells were grown in HyClone Minimal Essential Medium (MEM) and Dulbecco's Modified Eagle Medium (DMEM), respectively, supplemented with 10% (v/v) fetal bovine serum (FBS), penicillin (100 U/mL), and streptomycin ([…]). Cells were maintained in a humidified atmosphere of 95% air and 5% CO2 at 37° C. Cells were passaged 10 times at maximum. Cells were dissociated using 0.05% trypsin-EDTA solution and the cells were seeded in new culture dishes for maintenance.
To examine the cytotoxicity of compounds described herein in human cell lines, SH-SY5Y and 293T cells were used. Approximately 8,000 cells (for 293T) and 15,000 cells (for SH-SY5Y) were plated per well of a 96-well plate (SPL Life Sciences Co., Ltd., Pocheon, Korea). After incubating at 37° C. for 24 hours in a humidified atmosphere containing 5% CO2, the culture medium was replaced by a series of concentrations of test compounds diluted in the corresponding culture medium.
The time of co-incubation was 24 hours and six replicates were made for each measurement. Finally, 10 μL of CCK-8 reagent (Dojindo Laboratories, Rockville, MD) was added to each well, and after incubation at 37° C. for 3 minutes, the OD at 450 nm was measured using a multifunction microplate reader (Tecan Infinite M200 Pro). These measurements were compared to that of a control and expressed as a percentage of the control to calculate cell viability. The IC50 value was calculated using SPSS software. To do this, the absorbance of the blank wells with only growth medium is subtracted from the values or the wells with cells. The readout value of background (vehicle) was set as a 100% viability, and then the percent viability for each test solution was calculated.
The data was presented as the mean value and standard error of the mean (S.E.M.). Statistical analysis was performed with the one-way ANOVA with Tukey's post hoc test (GraphPad Prism 5 software package, version 5.02, GraphPad Software Inc. USA). Significance was accepted at p<0.05.
The cytotoxicity of the compound was evaluated by treating cells with BnH12003 and measuring cell viability.
By treating cells with various BnH12 series compounds and measuring cell viability using the experimental procedure described in Example 2, the cytotoxicity of the compounds was evaluated.

Compound	Cell viability test results (CCK) 10 uM	Cell viability test results (CCK) 100 uM
C[C@H]1CC[C@@H](C(=O)O)CN1C(=O)Cc1ccc(-c2ccc(F)cc2)cc1 [BnH12002, (3R,6S)-1-(2-(4′-fluoro-8 1,l′-biphenyl9-4-yl)acetyl)-6-methylpiperidine-3-carboxylic acid]	90%<	95%<
O=C(NO)[C@H]1CCCN1C(=O)Cc1ccc(-c2cncnc2)cc1 [BnH12015, (R)-N-hydroxy-1-(2-(4-(pyrimidin-5-yl)phenyl)acetyl) pyrrolidine-2-carboxamide]	99%<	99%<
C[C@H]1CC[C@@H](C(=O)O)CN1C(=O)Cc1ccc2nccnc2c1 [BnH12036, (3R,6S)-6-methyl-1-(2-(quinoxalin-6-yl)acetyl) piperidine-3-carboxylic acid]	95%<	95%<
C[C@H]1CC[C@@H](C(=O)O)CN1C(=O)Cc1ccc2c(c1)OCCO2 [BnH12037]	99%<	99%<
C[C@H]1CC[C@@H](C(=O)O)CN1C(=O)Cc1ccc(-c2ccccc2)cc1 [BnH12042]	95%<	90%<
C[C@H]1CC[C@@H](C(=O)O)CN1C(=O)Cc1ccc(-c2ccncc2)cc1 [BnH12043, (3R,6S)-6-methyl-1-(2-(4-(pyridin-4-yl)phenyl)acetyl) piperidine-3-carboxylic acid]	99%<	99%<
C[C@H]1CC[C@@H](C(=O)O)CN1C(=O)Cc1ccc(-c2ccccn2)cc1 [BnH12044, (3R,6S)-6-methyl-1-(2-(4-(pyridin-2-yl)phenyl)acetyl) piperidine-3-carboxylic acid]	80%<	75%<
C[C@H]1CC[C@@H](C(=O)O)CN1C(=O)Cc1ccc(-c2ncc(F)cn2)cc1 [BnH12049, (3R,6S)-1-(2-(4-(5-fluoropyrimidin-2-yl)phenyl)acetyl)-6-methylpiperidine-3-carboxylic acid]	90%<	85%<
C[C@H]1CC[C@@H](C(=O)O)CN1C(=O)Cc1ccc(-c2cnc(C3CC3)nc2)cc1 [BnH12052, (3R,6S)-1-(2-(4-(2-cyclopropylpyrimidin-5-yl)phenyl)acetyl)-6-methylpiperidine-3-carboxylic acid]	80%<	75%<
C[C@H]1CC[C@@H](C(=O)O)CN1C(=O)Cc1ccc(-c2ccncn2)cc1 [BnH12054, (3R,6S)-6-methyl-1-(2-(4-(pyrimidin-4-yl)phenyl)acetyl) piperidine-3-carboxylic acid]	99%<	99%<
C[C@H]1CC[C@@H](C(=O)O)CN1C(=O)Cc1ccc(-c2cccs2)cc1 [BnH12055, (3R,6S)-6-methyl-1-(2-(4-(thiophen-2-yl)phenyl)acetyl) piperidine-3-carboxylic acid]	90%<	60%<
C[C@H]1CC[C@@H](C(=O)O)CN1C(=O)Cc1ccc(-c2ccco2)cc1 [BnH12056, (3R,6S)-1-(2-(4-(furan-2-yl)phenyl)acetyl)-6-methylpiperidine-3-carboxylic acid]	95%<	90%<
C[C@H]1CC[C@@H](C(N)=O)CN1C(=O)Cc1ccc(-c2ncc(F)cn2)cc1 [BnH12059, (3R,6S)-1-(2-(4-(5-fluoropyrimidin-2-yl)phenyl)acetyl)-6-methylpiperidine-3-carboxamide]	90%<	70%<
C[C@H]1CC[C@@H](C(=O)O)CN1C(=O)Cc1ccc(-c2ccc([N+](=O)[O-])cc2)cc1 [BnH12077, (3R,6S)-6-methyl-1-(2-(4'-nitro-[1,1'-biphenyl]-4-yl)acetyl)piperidine-3-carboxylic acid]	99%<	60%<
C[C@H]1CC[C@@H](C(=O)O)CN1C(=O)c1ccc(-c2cccnc2)cc1 [BnH12080, (3R,6S)-6-methyl-1-(4-(pyridin-3-yl)benzoyl) piperidine-3-carboxylic acid]	85%<	85%<
COc1ccc(-c2ccc(CC(=O)N3C[C@H](C(=O)O)CC[C@@H]3C)cc2)cn1 [BnH12081, (3R,6S)-1-(2-(4-(6-methoxypyridin-3-yl)phenyl)acetyl)-6-methylpiperidine-3-carboxylic acid]	85%<	70%<
C[C@H]1CC[C@@H](C(=O)O)CN1C(=O)Cc1ccc(-c2ccc(C3CC3)nc2)cc1 [BnH12082, (3R,6S)-1-(2-(4-(6-cyclopropylpyridin-3-yl)phenyl)acetyl)-6-methylpiperidine-3-carboxylic acid]	90%<	90%<
C[C@H]1CC[C@@H](C(=O)O)CN1C(=O)Cc1ccc(-c2ccc(C(F)(F)F)nc2)cc1 [BnH12083, (3R,6S)-6-methyl-1-(2-(4-(6-(trifluoromethyl)pyridin-3-yl)phenyl)acetyl) piperidine-3-carboxylic acid]	95%<	75%<
Cc1ccc(-c2ccc(CC(=O)N3C[C@H](C(=O)O)CC[C@@H]3C)cc2)cn1 [BnH12084, (3R,6S)-6-methyl-1-(2-(4-(6-methylpyridin-3-yl)phenyl)acetyl) piperidine-3-carboxylic acid]	80%<	70%<
C[C@H]1CC[C@@H](C(=O)O)CN1C(=O)Cc1ccc(-c2ccc(-c3ccccc3)nc2)cc1 [BnH12087, (3R,6S)-6-methyl-1-(2-(4-(6-phenylpyridin-3-yl)phenyl)acetyl) piperidine-3-carboxylic acid]	85%<	45%<
